Data from US9206411B2, “Staphylococcal Phage2638A endolysin amidase domain is lytic for Staphylococcus aureus” (priority 2012, dated 2015).

B1: 2638A 180-486: engineered amidase-SH3b construct initiated at codon 180, SEQ ID NO:6 (protein)
chain: MKHIYSNHIKGNKITAPKPSIQGVVIHNDYGSMTPSQYLPWLYARENNGTHVNGWASVYANRNEVLWYHPTDYVEWHCGNQWANANLIGFEVCESYPGRISDKLFLENEEATLKVAADVMKSYGLPVNRNTVRLHNEFFGTSCPHRSWDLHVGKGEPYTTTNINKMKDYFIKRIKHYYDGGKLEVSKAATIKQSDVKQEVKKQEAKQIVKATDWKQNKDGIWYKAEHASFTVTAPEGIITRYKGPWTGHPQAGVLQKGQTIKYDEVQKFDGHVWVSWETFEGETVYMPVRTWDAKTGKVGKLWGEIKLEHHHHHH
modifications: Phage 2638a
B2: 2638A 139-486: truncated endolysin with full length amidase and SH3b domains, SEQ ID NO:5 (protein)
chain: MRPKDAKKDEKSQVCSGLAMEKYDITNLNAKQDKSKNGSVKELKHIYSNHIKGNKITAPKPSIQGVVIHNDYGSMTPSQYLPWLYARENNGTHVNGWASVYANRNEVLWYHPTDYVEWHCGNQWANANLIGFEVCESYPGRISDKLFLENEEATLKVAADVMKSYGLPVNRNTVRLHNEFFGTSCPHRSWDLHVGKGEPYTTTNINKMKDYFIKRIKHYYDGGKLEVSKAATIKQSDVKQEVKKQEAKQIVKATDWKQNKDGIWYKAEHASFTVTAPEGIITRYKGPWTGHPQAGVLQKGQTIKYDEVQKFDGHVWVSWETFEGETVYMPVRTWDAKTGKVGKLWGEIKLEHHHHHH
modifications: Phage 2638a
B3: 2638A 1-180Mut-486: repaired full length construct, codon 180 TTG silently mutated to CTC, SEQ ID NO:4 (protein)
chain: MLTAIDYLTKKGWKISSDPRTYDGYPKNYGYRNYHENGINYDEFCGGYHRAFDVYSNETNDVPAVTSGTVIEANDYGNFGGTFVIRDANDNDWIYGHLQRGSMRFVVGDKVNQGDIIGLQGNSNYYDNPMSVHLHLQLRPKDAKKDEKSQVCSGLAMEKYDITNLNAKQDKSKNGSVKELKHIYSNHIKGNKITAPKPSIQGVVIHNDYGSMTPSQYLPWLYARENNGTHVNGWASVYANRNEVLWYHPTDYVEWHCGNQWANANLIGFEVCESYPGRISDKLFLENEEATLKVAADVMKSYGLPVNRNTVRLHNEFFGTSCPHRSWDLHVGKGEPYTTTNINKMKDYFIKRIKHYYDGGKLEVSKAATIKQSDVKQEVKKQEAKQIVKATDWKQNKDGIWYKAEHASFTVTAPEGIITRYKGPWTGHPQAGVLQKGQTIKYDEVQKFDGHVWVSWETFEGETVYMPVRTWDAKTGKVGKLWGEIKLEHHHHHH
modifications: Mutated Phage 2638a

Columns and labels:
MRSA strain NRS382 = assay: Control of systemic MRSA infection in a murine model; assay type: in vivo, Staphylococcus aureus; conditions: for Mean NRS382 Titer in the Blood: Recovered 48 hr post infection from surviving mice, same doses
[1] = tested on: S. aureus strain NRS119 (SA LinR #12; linezolid resistant); assay: Plate lysis assay (FIG. 3); assay type: cell-based; conditions: lawn on TSA plates, observed over days
Experimental: Purified proteins for each construct were diluted in sterile nickel column elution buffer, and 6 μL of lysostaphin (11 μg) or the constructs (0.2 nmoles or ˜11 μg for the repaired construct 2638A 1-180Mut-486) was spotted onto a freshly spread lawn of S. aureus strain NRS119 (SA LinR #12; linezolid resistant) growing cells that had air dried for 30 min on tryptic soy agar (TSA) plates. L=[…] Lysostaphin (Sigma); Spot 1=11 μg; all other constructs are 0.2 nmoles (˜11 μg for the repaired construct 2638A 1-180Mut-486) […]. The spotted plates were air dried for 10 min in a laminar flow hood and incubated overnight in a 37° C. environment. Scoring of the cleared spots occurred within 20 h of plating the cells.
The Plate Lysis assay results (FIG. 3) agree with the turbidity reduction assay. Each of the M23 peptidase dependent or SH3b-truncating constructs showing weak activity on S. aureus strain Newman strain. In addition to the Plate Lysis results in FIG. 3, we have also examined numerous strains with reduced but real lytic activity (Table 1). However, the plate lysis results with the 2638A endolysin constructs are extremely novel in appearance. Plate lysis results are routinely visualized as a discrete cleared spot on a lawn of bacteria after a single overnight of culture. […]

S. aureus strain Newman [2] = assay: Turbidity reduction assay; assay type: cell-based; conditions: 0.5 μM protein; live S. aureus Newman; Mn2+, Mg2+, Ca2+ 1 mM; FIG. 3
Experimental: The turbidity assay measures the drop in optical density (OD) resulting from lysis of the target bacteria with the phage endolysin-derived protein. Mid log phase (OD600 nm of 0.4-0.6) target cells were grown in Brain Heart Infusion (Becton Dickenson, Franklin Lakes, N.J.) and concentrated in lysing buffer A (LBA; 50 mM ammonium acetate, 10 mM CaCl2, 1 mM DTT at pH 6.2) to an OD600 nm of ˜2.0. The turbidity reduction assays were performed with identical molar amounts of proteins and S. aureus strain Newman with the addition of the bivalent metal cations Mn^2+, Mg^2+, and Ca^2+ at a concentration of 1 mM. The turbidity reduction assay contained 0.5 μM protein (5.7 μg of full length repaired construct: 2638A 1-180Mut-486 in 200 μl assay) unless otherwise noted. Lane 1, 2638A 1-486 (5.7 μg total protein in 200 μl assay); Lane 2, 2638A 1-196; Lane 3, 2638A 1-220; Lane 4, 2638A 1-244; Lane 5, 2638A 1-220::355-486; Lane 6, 2638A 1-411; Lane 7, 2638A 139-411; Lane 8, 2638A 139-486; Lane 9, 2638A 180-486; Lane 10, 2638A 1-180Mut-486. Mixing reactions between the repaired full length construct 2638A 1-180Mut-486 (R) and the engineered amidase-SH3b construct 2638A 180-486 (A) were performed in the following ratios Lane 11, R:A::1:1, 1 μM; Lane 12, R:A::1:1, 0.5 μM; Lane 13, R:A::1:3, 0.5 μM; and Lane 14, R:A::3:1, 0.5 μM. Optical Density measurements are taken at regular intervals. If the lysin can digest the cell wall, lysis will occur with a subsequent reduction in OD. Changes in the OD600 nm in the control sample (cells alone) were subtracted from samples containing both cells and lysin, before calculating the specific activity. Specific Activity=ΔOD600 nm/μM/min.

S. aureus strain Newman [3] = assay: Zymogram analysis; assay type: cell-based; conditions: 5 μg loaded; SDS treated S. aureus Newman embedded in gel; FIG. 1C
Excerpt: Zymograms are not usually interpreted quantitatively (especially since these were loaded with μg equivalents and not molar equivalents of enzyme) but rather are used to indicate that the minor contaminating bands in the preparations are not contributing to the activity of the preparation. There was virtually no activity from any of the minor (non-shadow) bands in the zymogram assay after extended periods. However, the presence of nearly equal amounts of the active shadow band (from stained SDS gel) in many preparations negated the ability to quantify the activity from either the isolated amidase domain (2638A 139-411; 2638A 139-486) or the full length construct.

[4] = 0 hours, Balb/c mice, I.P. 4×10^7 CFU, treated 30 min post infection: 2638A 200 μg/mouse I.P., Vancomycin 375 μg/mouse s.c., Oxacillin 1250 μg/mouse s.c.

Molecule	% Survival (MRSA strain NRS382; [4]) [%]	% Survival (MRSA strain NRS382; 4 hours, same model and doses) [%]	% Survival (MRSA strain NRS382; 8 hours, same model and doses) [%]	% Survival (MRSA strain NRS382; 12 hours, same model and doses) [%]	% Survival (MRSA strain NRS382; 16 hours, same model and doses) [%]	% Survival (MRSA strain NRS382; 20 hours, same model and doses) [%]	% Survival (MRSA strain NRS382; 24 hours, same model and doses) [%]	% Survival (MRSA strain NRS382; 28 hours, same model and doses) [%]	% Survival (MRSA strain NRS382; 32 hours, same model and doses) [%]	% Survival (MRSA strain NRS382; 36 hours, same model and doses) [%]	% Survival (MRSA strain NRS382; 40 hours, same model and doses) [%]	% Survival (MRSA strain NRS382; 44 hours, same model and doses) [%]	Mean NRS382 Titer in the Blood (MRSA strain NRS382)	activity in the turbidity reduction assay (S. aureus strain Newman [2])	further results
Cc1onc(-c2ccccc2)c1C(=O)N[C@@H]1C(=O)N2[C@@H]1SC(C)(C)[C@@H]2C(=O)O [Oxacillin]	100	100	100	100	100	40	40	30	30	30	30	30	0.9 ± 1.6 × 10^3 CFU/ml		survival rate (MRSA strain NRS382; after 16 to 20 hours, same model and doses): less than 40%; average septicemia score (MRSA strain NRS382; at 20 hours post infection, maintained until the end, score 0-5 per Table 4): approximately 4
CN[C@H](CC(C)C)C(=O)N[C@H]1C(=O)N[C@@H](CC(N)=O)C(=O)N[C@H]2C(=O)N[C@H]3C(=O)N[C@H](C(=O)N[C@H](C(=O)O)c4cc(O)cc(O)c4-c4cc3ccc4O)[C@H](O)c3ccc(c(Cl)c3)Oc3cc2cc(c3O[C@@H]2O[C@H](CO)[C@@H](O)[C@H](O)[C@H]2O[C@H]2C[C@](C)(N)[C@H](O)[C@H](C)O2)Oc2ccc(cc2Cl)[C@H]1O [Vancomycin]	100	100	100	100	100	100	100	100	100	100	100	100	1.8 ± 3.3 × 10^1 CFU/ml		% Survival (MRSA strain NRS382; 48 hours (end of the experiment), same model and doses): 100%; septicemia score at the end of the experiment (MRSA strain NRS382; 48 hours, score 0-5 per Table 4): 0
Lysostaphin: Lysostaphin (Sigma), peptidoglycan hydrolase control in plate lysis [reference compound]															appearance and persistence of the cleared zone in plate lysis [1]: cleared zone remains that way for days or weeks
B1														appreciable activity	
B2														appreciable activity	staphylolytic activity (zones of clearing) in the zymogram (S. aureus strain Newman [3]): active
B3														appreciable activity	
